The values below come from patent US20230399312A1, “SUBSTITUTED PYRIMIDINES AND METHODS OF USE” (THERAVANCE BIOPHARMA R&D IP, LLC, priority 2020, published 2023).

Where only a bound is given, the exact number is not on record here.

The test system of test [1] is TGF-β-stimulated SMAD3 phosphorylation in BEAS-2B cells. Put plainly: Cellular ALK5 potency assay, inhibition of TGF-β stimulated pSMAD3 formation in BEAS-2B cells. In kind it is cell-based. The following applies: Homo sapiens, pSMAD3, TGF-β 10 ng/mL, read-out: BEAS2B pIC50 (converted). In outline: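 BEAS-2B cells, HBSS/25 mM HEPES/1% BSA buffer; cpd 1 h, 37 °C; TGF-β 10 ng/mL final, 30 min; lysis, AlphaLISA pSMAD3 read next day. pIC50 vs stimulated no-compound baseline.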

The target in test [2] is T1, recombinant human ALK5 (TGF-βR1) protein (Homo sapiens, UniProt P36897).
T1 construct: purchased Life Technologies PR9075A
T1 sequence (P36897 34-503): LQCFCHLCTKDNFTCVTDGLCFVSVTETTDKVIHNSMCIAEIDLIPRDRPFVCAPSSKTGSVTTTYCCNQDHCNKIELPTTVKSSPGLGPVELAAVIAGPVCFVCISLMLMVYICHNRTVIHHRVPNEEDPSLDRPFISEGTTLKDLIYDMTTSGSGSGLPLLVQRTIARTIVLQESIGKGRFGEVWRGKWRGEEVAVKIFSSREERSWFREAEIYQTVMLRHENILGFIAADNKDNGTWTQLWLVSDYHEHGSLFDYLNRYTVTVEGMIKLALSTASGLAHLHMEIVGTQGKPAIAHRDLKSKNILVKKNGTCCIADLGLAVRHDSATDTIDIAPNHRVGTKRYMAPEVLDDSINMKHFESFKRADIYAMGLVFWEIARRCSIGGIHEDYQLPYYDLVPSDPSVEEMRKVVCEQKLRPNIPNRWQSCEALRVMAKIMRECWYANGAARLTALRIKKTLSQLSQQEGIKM
Put plainly: Biochemical ALK5 (TGF-βR1) assay to measure pKi (LANCE Ultra ULight kinase assay). The settings on record: apparent pKi, converted from pIC50 by Cheng-Prusoff. Summed up: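 Enzyme was preincubated with compound for 60 min at room temperature, then ATP (added from a 125 μM 5× stock with 2 mM DTT) started a 60 min reaction at 37 °C. EDTA plus Eu-anti-phospho-Topo2α (Thr1342) antibody stopped it; TR-FRET pIC50 values were converted to pKi by Cheng-Prusoff.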

For `Cc1cccc(-c2nccc(Nc3ccnc(Nc4cncc(C(=O)O[C@H]5CCNC5)c4)n3)n2)n1` [Compound 550, [(3S)-pyrrolidin-3-yl] 5-[[4-[[2-(6-methyl-2-pyridyl)pyrimidin-4-yl]amino]pyrimidin-2-yl]amino]pyridine-3-carboxylate], the IC50 in test [1] was 25.1 to 158 nM. Further, the Ki in test [2] was 0.398 to 3.16 nM.

For `Cc1cccc(-c2nccc(Nc3ccnc(Nc4nc(C(=O)OCCN5CCNCC5)cs4)n3)n2)n1` [Compound 551, 2-piperazin-1-ylethyl 2-[[4-[[2-(6-methyl-2-pyridyl)pyrimidin-4-yl]amino]pyrimidin-2-yl]amino]thiazole-4-carboxylate], in test [1], the IC50 is 200 to 1260 nM. In addition, the Ki in test [2] is 0.398 to 3.16 nM.

With `Cc1cccc(-c2nccc(Nc3ccnc(Nc4ccc(C(=O)OCCN5CCNCC5)nc4)n3)n2)n1` [Compound 552, 2-piperazin-1-ylethyl 5-[[4-[[2-(6-methyl-2-pyridyl)pyrimidin-4-yl]amino]pyrimidin-2-yl]amino]pyridine-2-carboxylate], the IC50 in test [1] was 25.1 to 158 nM. Further, the Ki in test [2] is 0.0398 to 0.316 nM.

On to `Cc1cccc(-c2nccc(Nc3ccnc(Nc4cccc(C(=O)OCCN5CCNCC5)c4)n3)n2)n1` [Compound 553, 2-piperazin-1-ylethyl 3-[[4-[[2-(6-methyl-2-pyridyl)pyrimidin-4-yl]amino]pyrimidin-2-yl]amino]benzoate], for which the IC50 in test [1] is 25.1 to 158 nM. Also, the Ki in test [2] is 0.398 to 3.16 nM.

In the case of `Cc1cccc(-c2nccc(Nc3ccnc(Nc4csc(C(=O)OCCN5CCNCC5)c4)n3)n2)n1` [Compound 554, 2-piperazin-1-ylethyl 4-[[4-[[2-(6-methyl-2-pyridyl)pyrimidin-4-yl]amino]pyrimidin-2-yl]amino]thiophene-2-carboxylate], the IC50 in test [1] is 25.1 to 158 nM. The Ki in test [2] is 0.0398 to 0.316 nM.

Take `Fc1cc(F)c(-c2nccc(Nc3ccnc(Nc4ccc(N5CCNCC5)cc4)n3)n2)cc1Cl` [Compound 556, N4-(2-(5-chloro-2,4-difluorophenyl)pyrimidin-4-yl)-N2-(4-(piperazin-1-yl)phenyl)pyrimidine-2,4-diamine]: the IC50 in test [1] was 25.1 to 158 nM. Further, the Ki in test [2] is 0.0398 to 0.316 nM.

`Cc1cccc(-c2nccc(Nc3ccnc(Nc4ccc(C(=O)OCC56CNCC5C6)nc4)n3)n2)n1` (stereo not shown) [Compound 557, 3-azabicyclo[3.1.0]hexan-1-ylmethyl 5-[[4-[[2-(6-methyl-2-pyridyl)pyrimidin-4-yl]amino]pyrimidin-2-yl]amino]pyridine-2-carboxylate]: the IC50 in test [1] was 200 to 1260 nM. Moreover, in test [2], the Ki was 0.0398 to 0.316 nM.

Turning to `Cc1cccc(-c2nccc(Nc3ccnc(Nc4ccc(C(=O)OCCC5CCNCC5)nc4)n3)n2)n1` [Compound 558, 2-(4-piperidyl)ethyl 5-[[4-[[2-(6-methyl-2-pyridyl)pyrimidin-4-yl]amino]pyrimidin-2-yl]amino]pyridine-2-carboxylate], in test [1], the IC50 was 25.1 to 158 nM. Also, in test [2], the Ki is 0.0398 to 0.316 nM.

In the case of `Cc1cccc(-c2nccc(Nc3ccnc(Nc4csc(C(=O)OCCNC5CNC5)c4)n3)n2)n1` [Compound 560, 2-(azetidin-3-ylamino)ethyl 4-[[4-[[2-(6-methyl-2-pyridyl)pyrimidin-4-yl]amino]pyrimidin-2-yl]amino]thiophene-2-carboxylate], the IC50 in test [1] was 25.1 to 158 nM. Also, the Ki in test [2] is 0.0398 to 0.316 nM.

For `Cc1cccc(-c2nccc(Nc3ccnc(Nc4ccc(C(=O)OC5CCNCC5)nc4)n3)n2)n1` [Compound 561, 4-piperidyl 5-[[4-[[2-(6-methyl-2-pyridyl)pyrimidin-4-yl]amino]pyrimidin-2-yl]amino]pyridine-2-carboxylate], the IC50 in test [1] was 25.1 to 158 nM. The Ki in test [2] is 0.0398 to 0.316 nM.

Turning to `Cc1cccc(-c2nccc(Nc3ccnc(Nc4ccc(C(=O)O[C@H](C)C5CCNCC5)nc4)n3)n2)n1` [Compound 562, [(1R)-1-(4-piperidyl)ethyl] 5-[[4-[[2-(6-methyl-2-pyridyl)pyrimidin-4-yl]amino]pyrimidin-2-yl]amino]pyridine-2-carboxylate], the IC50 in test [1] was 200 to 1260 nM. In test [2], the Ki was 0.0398 to 0.316 nM.

With `Cc1cccc(-c2nccc(Nc3ccnc(Nc4csc(C(=O)OC[C@H]5CC[C@@H](N)CC5)c4)n3)n2)n1` [Compound 563, (4-aminocyclohexyl)methyl 4-[[4-[[2-(6-methyl-2-pyridyl)pyrimidin-4-yl]amino]pyrimidin-2-yl]amino]thiophene-2-carboxylate], the IC50 in test [1] is 200 to 1260 nM. Also, in test [2], the Ki is 0.0398 to 0.316 nM.

For the molecule `Cc1cccc(-c2nccc(Nc3ccnc(Nc4ccc(C(=O)OCC5CNC5)cn4)n3)n2)n1` [Compound 564, azetidin-3-ylmethyl 6-[[4-[[2-(6-methyl-2-pyridyl)pyrimidin-4-yl]amino]pyrimidin-2-yl]amino]pyridine-3-carboxylate], the IC50 in test [1] was 200 to 1260 nM. The Ki in test [2] was 3.98 to 31.6 nM.

As to `Cc1cccc(-c2nccc(Nc3ccnc(Nc4cncc(CN5CC(C(=O)OC6CCNCC6)C5)c4)n3)n2)n1` [Compound 565, 4-piperidyl 1-[[5-[[4-[[2-(6-methyl-2-pyridyl)pyrimidin-4-yl]amino]pyrimidin-2-yl]amino]-3-pyridyl]methyl]azetidine-3-carboxylate], the IC50 in test [1] was 25.1 to 158 nM. Also, the Ki in test [2] was 0.0398 to 0.316 nM.

Take `Cc1cccc(-c2nccc(Nc3ccnc(Nc4csc(C(=O)O[C@H]5CC[C@@](C)(N)CC5)c4)n3)n2)n1` [Compound 566, (4-amino-4-methyl-cyclohexyl) 4-[[4-[[2-(6-methyl-2-pyridyl)pyrimidin-4-yl]amino]pyrimidin-2-yl]amino]thiophene-2-carboxylate]: the IC50 in test [1] is 25.1 to 158 nM. Also, the Ki in test [2] was 0.0398 to 0.316 nM.

Consider `Cc1cccc(-c2nccc(Nc3ccnc(Nc4ccc(C(=O)O[C@@H]5CC[C@@H](C)NC5)nc4)n3)n2)n1` [Compound 567, [(3R,6R)-6-methyl-3-piperidyl] 5-[[4-[[2-(6-methyl-2-pyridyl)pyrimidin-4-yl]amino]pyrimidin-2-yl]amino]pyridine-2-carboxylate], for which, in test [1], the IC50 was 25.1 to 158 nM. In addition, in test [2], the Ki was 0.0398 to 0.316 nM.

With `Cc1cccc(-c2nccc(Nc3ccnc(Nc4csc(C(=O)OCCN5CC[C@@H](N)C5)c4)n3)n2)n1` [Compound 568, 2-[(3R)-3-aminopyrrolidin-1-yl]ethyl 4-[[4-[[2-(6-methyl-2-pyridyl)pyrimidin-4-yl]amino]pyrimidin-2-yl]amino]thiophene-2-carboxylate], the IC50 in test [1] was 25.1 to 158 nM. For the same molecule, the Ki in test [2] was 0.0398 to 0.316 nM.

For the molecule `Cc1cccc(-c2nccc(Nc3ccnc(Nc4ccc(CN5CC(C(=O)O)C5)nc4)n3)n2)n1` [Compound 569, 1-[[5-[[4-[[2-(6-methyl-2-pyridyl)pyrimidin-4-yl]amino]pyrimidin-2-yl]amino]-2-pyridyl]methyl]azetidine-3-carboxylic acid], the IC50 in test [1] is 200 to 1260 nM. Further, in test [2], the Ki was 0.0398 to 0.316 nM.

For the molecule `Cc1cccc(-c2nccc(Nc3ccnc(Nc4cncc(C(=O)OC[C@@H]5CCNC5)c4)n3)n2)n1` [Compound 570, [(3R)-pyrrolidin-3-yl]methyl 5-[[4-[[2-(6-methyl-2-pyridyl)pyrimidin-4-yl]amino]pyrimidin-2-yl]amino]pyridine-3-carboxylate], in test [1], the IC50 was 25.1 to 158 nM. In test [2], the Ki was 0.398 to 3.16 nM.

For `Cc1cccc(-c2nccc(Nc3ccnc(Nc4nc(C5=CCNCC5)cs4)n3)n2)n1` [Compound 571, N4-[2-(6-methyl-2-pyridyl)pyrimidin-4-yl]-N2-[4-(1,2,3,6-tetrahydropyridin-4-yl)thiazol-2-yl]pyrimidine-2,4-diamine], in test [1], the IC50 is not above 20 nM. For the same molecule, the Ki in test [2] is 0.0398 to 0.316 nM.
